The record followed here is the OPERA property sets (Mansouri et al. 2018).

A word on the logP: it is the decadic logarithm of the partition coefficient of the neutral form, usually between octanol and water. A higher logP goes with a more lipophilic compound.

Molecules are shown by their SMILES. Peptide text beside a SMILES is read from it.

Regarding `CC[C@H](C)[C@H](NC(C)=O)C(=O)N[C@H](C(N)=O)C(C)C` (Ac-Ile-Val-NH2), the logP was determined as 0.16. As for `CN(C)c1ccc(Cl)nn1`, the logP worked out at 0.98. In the case of `Cc1cc(C)c(N(C)C)c(C)c1`, the logP was found to be 4.41. Take `C[C@H](N)[C@H](O)c1cccc(O)c1`: the logP is -0.27. As to `Nc1cc(Cl)cc(Cl)c1`, the logP worked out at 2.9. `O=[N+]([O-])c1ccc(C=Cc2ncccn2)o1` displayed a log partition coefficient (logP) of 1.34.

With `CC12CCC3C(CCC4(O)CC(O)CCC34C=O)C1(O)CCC2C1=CC(=O)OC1` (configuration not stated), the logP was found to be 0.64. `O=C(COC(=O)c1ccccc1)NC1CCCCC1` displayed a logP of 2.81. `ClC(Cl)(Cl)Cl` registered a logP of 2.83.

Turning to `CON(C)C(=O)Nc1ccc(Br)c(Cl)c1`, the logP came out at 3.09.

`O=c1[nH]cc(Br)c(=O)[nH]1` showed a logP of -0.21. In the case of `Cc1ccc2cccc(C)c2c1`, the logP was found to be 4.44. The molecule `CCCc1cccc(OCC(=O)O)c1` displayed a logP of 2.71. Turning to `O=[N+]([O-])c1ccc2ncccc2c1`, the log partition coefficient (logP) came out at 1.84.

`CCCOc1cccc(C=C(C(C)=O)C(=O)OCC)c1` displayed a logP of 3.34.

As to `O=C1C=C(Br)C(=O)c2ccccc21`, the logP stood at 2.44.

In turn, `CC(C)C(C#N)c1ccccc1` (configuration not stated) registered a logP of 2.33.

On to `Nc1ccc(C(=O)Oc2ccccc2F)c(O)c1`, for which the lipophilicity (logP) came to 3.29.

As for `NC1CC1`, the logP was found to be 0.07. Take `CC(=O)OC1C(=O)C2(C)C(O)CC3OCC3(OC(C)=O)C2C(OC(=O)c2ccccc2)C(C)(O)C2(C)CC(OC(=O)C(C)O)C(C)=C12` (configuration not stated): the log partition coefficient (logP) is 1.52.

For `CCc1ccncc1`, the logP worked out at 1.65. Consider `CNc1nc(NC)nc(SC(F)F)n1`, for which the logP amounted to 2.31. With `COC(=O)Cc1ccccc1` the figure was 1.83; with `CC(C)(C)N`, 0.4.

Molecule `OCCCc1ccccc1` returned a logP of 1.88. Molecule `COc1ccc2cc(C(C)C(=O)OCC(=O)N(CCO)CCO)ccc2c1` (configuration not stated) showed a logP of 1.7. `CCOC(=O)c1cccc([N+](=O)[O-])c1` returned a logP of 2.35. Take `FC(F)(F)c1ccccc1N=C1NCCN1`: the lipophilicity (logP) was 1.42. `CCOS(=O)(=O)c1ccc(C)cc1` showed a logP of 1.81. `CCOC(=O)c1ccncc1` yielded a logP of 1.43. Turning to `C=CCC(NC(C)=O)C(N)=O` (configuration not stated), the logP was -0.86. The molecule `O=S1(=O)OC(c2ccc(O)cc2)(c2ccc(O)cc2)c2ccccc21` came in with a logP of 3.02.

In turn, `CCCCCC(=O)O` showed a logP of 1.92. Molecule `Nc1ccc2[nH]ccc2c1` gave a logP of 0.7. In turn, `O=C1CCCCC1` yielded a logP of 0.81.

Take `Oc1ccc(Br)cc1Br`: the lipophilicity (logP) was 3.22. Molecule `Cc1ccc2[nH]ccc2c1` registered a logP of 2.68. For `CC(=O)c1ccc(S(I)=C(N(C)C)N(C)C)cc1` (configuration not stated) the value was -0.85; for `CCCCCOc1cc(N)ccc1C(=O)O`, 2.38. With `O=NN(CCCl)C(=O)NC1CCCCCCCCCCC1` the figure was 5.64.

Molecule `CC(=O)Nc1cn[nH]c1` gave a logP of -0.38. Regarding `Cc1ccc2ccccc2n1`, the lipophilicity (logP) is 2.59. `CC(=O)NC(CCC(=O)O)C(=O)NC(Cc1ccccc1)C(=O)NC(CC(C)C)C(N)=O` (stereo not drawn) (Ac-Glu-Phe-Leu-NH2; configuration not given here) showed a logP of 0.32.

`CC(=O)c1ccnc2cc(Cl)ccc12` had a lipophilicity (logP) of 2.62. As for `O=[N+]([O-])c1ccccc1F`, the logP was determined as 1.69. For the molecule `COc1ccc(S(I)=C(N(C)C)N(C)C)cc1` (configuration not stated), the logP was -0.51. Take `CCOC(=O)n1cnc(CC(NC(=O)C2CCC(=O)N2)C(=O)N2CCCC2C(N)=O)c1` (configuration not stated): the log partition coefficient (logP) is -1.3. With `Nc1cc(C(F)(F)F)ccc1Cl` the figure was 3.06; with `CC(=O)OC1(C(=O)CO)CCC2C3CCC4=CC(=O)C=CC4(C)C3C(=O)CC21C` (configuration not stated), 2.43. In turn, `Cc1c(O)c(=O)ccn1CCN` yielded a logP of -1.55.

`COc1ccc(N)cc1Cl`: the logP worked out at 1.85.

Consider `Cc1cnccn1`, for which the logP worked out at 0.21. For `O=[N+]([O-])c1cccnc1` the value was 0.6; for `C1=c2ccc3cccc4ccc(c2c43)CC1`, 4.92; for `CCc1ccccc1OC(C)=O`, 2.42. `O=C(Nc1ncnc2c1ncn2[C@H]1C[C@H](O)[C@@H](CO)O1)c1ccccc1`: the logP was 0.22. `COc1ccccc1CO` gave a logP of 1.13. For `O=C1OCc2c(Cl)c(Cl)c(Cl)c(Cl)c21`, the logP is 3.2. With `O=C(COc1ccccc1)Nc1ccccc1` the figure was 2.73.

For the molecule `O=C(O)Cc1ccc(OCCCc2ccccc2)c(Cl)c1`, the log partition coefficient (logP) amounted to 3.9. Regarding `CCc1ccsc1`, the log partition coefficient (logP) was determined as 2.82. In turn, `O=C(O)c1ccccc1S` had a log partition coefficient (logP) of 2.39. As for `CC(=O)Nc1ccc(O)c(C(C)C)c1`, the log partition coefficient (logP) was 1.71.

On to `Nc1nccc(=O)[nH]1`, for which the logP was -0.99. `O=C(Cn1c(=O)sc2ccc(Cl)cc21)N1CCNCC1`: the logP was found to be 1.35. With `COC(COC(N)=O)C1=C(N2CC2)C(=O)C(C)=C(N2CC2)C1=O` (configuration not stated) the figure was -0.15; with `CC(C)(C)NC(=O)NO`, 0.5; with `CCN(CC)CCNC(=O)c1ccc(N)cc1`, 0.88. In the case of `CCCCCCCBr`, the logP was found to be 4.36. In turn, `Cc1cccc2cccc(C)c12` returned a logP of 4.26. For `CSCS(=O)CC(C)NC(=O)C=Cc1c(C)[nH]c(=O)[nH]c1=O` (configuration not stated) the value was -0.7. On to `O=C(O)c1cc([N+](=O)[O-])c(Cl)c([N+](=O)[O-])c1`, for which the logP worked out at 2.5. As for `O=C1CN=C(c2ccc(F)cc2)c2cc(Cl)ccc2N1`, the logP was found to be 2.9. Molecule `c1ccc2c(c1)-c1cccc3cccc-2c13` came in with a logP of 5.16. Turning to `COP(=O)(OC)OC(Br)C(Cl)(Cl)Br` (configuration not stated), the logP amounted to 1.38. `Clc1ccc(-c2cc(Cl)c(Cl)cc2Cl)cc1` came in with a logP of 6.67. With `CN(C)N=Nc1nc[nH]c1C(N)=O` the figure was -0.24; with `CCCC(N)Cc1ccccc1` (configuration not stated), 2.79. For the molecule `Cc1[nH]cnc1CSCCNc1ncc(Cc2ccc3c(c2)OCO3)c(=O)[nH]1`, the logP amounted to 2.11. For `O=C(O)c1cccc(Oc2ccccc2)c1`, the logP is 3.91.

For `Nc1nc(N)nc(-c2cccc(C(F)(F)F)c2)n1`, the logP amounted to 2.67.

`CCCCc1ccc(C(=O)O)cc1`: the logP was determined as 3.97. Take `CC(=O)c1cccc([N+](=O)[O-])c1`: the logP is 1.42. As for `c1ccc2c(c1)Cc1ccccc1C2`, the logP worked out at 4.25. With `CC(C)(C)c1ccc(N)cc1` the figure was 2.7; with `C[n+]1cccc2ccccc21.[Br-]`, -2.64; with `CN(C)N=Nc1ccccc1`, 2.59. For the molecule `CCCCC(=O)OCC(=O)C1(O)CCC2C3CCC4=CC(=O)CCC4(C)C3C(O)CC21C` (configuration not stated), the logP turned out to be 3.62. For `O=C(NC(CO)C(O)c1ccc([N+](=O)[O-])cc1)C(Cl)(Cl)Cl` (configuration not stated) the value was 1.97; for `CC12C=CC(=O)C=C1CCC1C2C(O)CC2(C)C1CCC2(O)C(=O)COC1OC(CO)C(O)C(O)C1O` (configuration not stated), 0.27; for `CNC(=S)N(C)C`, 0.1. Consider `CC(=O)Nc1ccc(C=O)cc1`, for which the logP was 1.25. `O=C(O)c1ccccc1F` displayed a logP of 1.77. With `CC(=O)N[C@@H](Cc1ccccc1)C(=O)N[C@@H](CCC(N)=O)C(N)=O` the figure was -1.03; with `O=C1C=C(N2CCCC2)C(=O)C=C1N1CCCC1`, 1.97. Regarding `c1ccc2cnccc2c1`, the logP came out at 2.08. For `CCCCCOC(=O)NC`, the logP is 1.96. Molecule `OCC1OC(Oc2ccc(Cl)cc2)C(O)C(O)C1O` (configuration not stated) had a logP of 0.26. For `Clc1ccccc1-c1ccccc1`, the logP came out at 4.53. In turn, `Cc1ccc(C)c2ccccc12` gave a log partition coefficient (logP) of 4.37. In turn, `CC(Oc1ccccc1)C(=O)N[C@@H]1C(=O)N2[C@@H]1SC(C)(C)[C@@H]2C(=O)O` (some centres not stated) registered a logP of 2.2. For the molecule `CC(C)(C)OC(N)=O`, the logP worked out at 0.48. With `CCOC(=O)C(=Cc1ccc(Cl)cc1Cl)C(C)=O` the figure was 3.67; with `COc1ccc(Cl)cc1C(=O)NCCc1ccc(C(=O)O)cc1`, 3.4; with `COC(=O)c1ccccc1N=NN(C)C`, 2.51. With `CCn1nnc(Oc2ccc(NC(=O)N(C)C)cc2Cl)n1` the figure was 1.7; with `ClC1CC(Cl)C(Cl)C(Cl)C1Cl` (configuration not stated), 3.53; with `CN(C)c1cccc(O)c1`, 1.56.

In the case of `CNC(=O)c1[nH]nc(C)c1[N+](=O)[O-]`, the logP is -0.23. For `CCC1(c2ccccc2)C(=O)NC(=O)N(C)C1=O` (configuration not stated) the value was 1.84. Molecule `NCCCc1ccncc1` had a log partition coefficient (logP) of 0.4.

Turning to `CCCCC(N)C(=O)O` (configuration not stated), the logP is -1.53.

`CN(C)CCN1c2ccccc2Sc2ccccc21`: the logP is 4.2. For `Cc1cccc2c(C)cccc12` the value was 4.38; for `NC1=C(Cl)C(=O)c2ccccc2C1=O`, 2.12; for `O=C(O)CCCCCCc1ccccc1`, 3.63.

As to `CC(C)c1ccccc1O`, the logP was 2.88. For `CN(C)C(N(C)C)=S(I)c1cccc(F)c1` (configuration not stated), the logP is -0.53. In turn, `CCC(=O)c1ccncc1` yielded a logP of 0.77. With `CC1=C(N2CC2)C(=O)C(Cl)=C(N2CC2)C1=O` the figure was 1.2.

`CN1C(=O)CN=C(c2ccc(Cl)cc2)c2cc(F)ccc21` returned a logP of 3.1. Turning to `COc1cc(C(=O)O)cc(OC)c1O`, the logP worked out at 1.04.

The molecule `COc1c(O)c(C)c(C)c(O)c1OC` gave a logP of 1.6. On to `COP(=O)(OC)C(O)C(Cl)(Cl)Cl` (configuration not stated), for which the logP turned out to be 0.51. `O=C(CN1CCCCC1)Nc1ccccc1Br` gave a lipophilicity (logP) of 2.94. `CCCS(=O)(=O)CCn1c([N+](=O)[O-])cnc1C` returned a log partition coefficient (logP) of 0.23.

The molecule `O=[N+]([O-])c1cnc2ccccc2c1` had a logP of 1.97. Consider `CC1=CC(=O)C=C(C)C1=O`, for which the logP turned out to be 1.22.

As to `Ic1cn[nH]c1`, the logP was found to be 1.7.

In turn, `CNC(=O)Oc1ccccc1C1OCCO1` displayed a logP of 0.67. For `CCNNC(=O)COc1ccccc1` the value was 1; for `O=C(c1ccco1)C(O)c1ccco1` (configuration not stated), 0.54.
